The values that follow come from PMC9863562, “Design, Synthesis, and Biological Evaluation of 2-Mercaptobenzoxazole Derivatives as Potential Multi-Kinase Inhibitors” (Pharmaceuticals, 2023).

This assay deals with T1, Human EGFR (Homo sapiens, UniProt P00533).
T1 construct: purchased
The assay is described as follows: In vitro EGFR enzyme assay (ELISA kit). The format is biochemical. On the procedure:
Human CDK2, EGFR, HER2, and VEGFR-2 ELISA kits (Enzyme-Linked-Immunosorbent Serologic Assay) were used during this evaluation. At first, specified antibody proteins were added separately to a 96-well plate, then 0.1 mL of the standard solution or the evaluated molecule was added; these were then incubated for 2.5 h at RT. After rinsing, 100 μL of the ready-made biotin antibody protein was added, then incubated for one extra hour at room temperature and, finally, washed. Next, 100 μL of streptavidin solution was added, incubated at room temperature for 45 min, and then washed. Next, 100 μL of the TMB substrate reagent was added and incubated for 0.5 h at RT, followed by adding 50 μL of the stop solution. The absorbance of the ELISA plate was promptly measured at 450 nm using the ELISA plate reader.
For orientation: In an ELISA, binding on a coated surface is turned into a signal by an enzyme label.

T1 sequence (P00533 25-1210): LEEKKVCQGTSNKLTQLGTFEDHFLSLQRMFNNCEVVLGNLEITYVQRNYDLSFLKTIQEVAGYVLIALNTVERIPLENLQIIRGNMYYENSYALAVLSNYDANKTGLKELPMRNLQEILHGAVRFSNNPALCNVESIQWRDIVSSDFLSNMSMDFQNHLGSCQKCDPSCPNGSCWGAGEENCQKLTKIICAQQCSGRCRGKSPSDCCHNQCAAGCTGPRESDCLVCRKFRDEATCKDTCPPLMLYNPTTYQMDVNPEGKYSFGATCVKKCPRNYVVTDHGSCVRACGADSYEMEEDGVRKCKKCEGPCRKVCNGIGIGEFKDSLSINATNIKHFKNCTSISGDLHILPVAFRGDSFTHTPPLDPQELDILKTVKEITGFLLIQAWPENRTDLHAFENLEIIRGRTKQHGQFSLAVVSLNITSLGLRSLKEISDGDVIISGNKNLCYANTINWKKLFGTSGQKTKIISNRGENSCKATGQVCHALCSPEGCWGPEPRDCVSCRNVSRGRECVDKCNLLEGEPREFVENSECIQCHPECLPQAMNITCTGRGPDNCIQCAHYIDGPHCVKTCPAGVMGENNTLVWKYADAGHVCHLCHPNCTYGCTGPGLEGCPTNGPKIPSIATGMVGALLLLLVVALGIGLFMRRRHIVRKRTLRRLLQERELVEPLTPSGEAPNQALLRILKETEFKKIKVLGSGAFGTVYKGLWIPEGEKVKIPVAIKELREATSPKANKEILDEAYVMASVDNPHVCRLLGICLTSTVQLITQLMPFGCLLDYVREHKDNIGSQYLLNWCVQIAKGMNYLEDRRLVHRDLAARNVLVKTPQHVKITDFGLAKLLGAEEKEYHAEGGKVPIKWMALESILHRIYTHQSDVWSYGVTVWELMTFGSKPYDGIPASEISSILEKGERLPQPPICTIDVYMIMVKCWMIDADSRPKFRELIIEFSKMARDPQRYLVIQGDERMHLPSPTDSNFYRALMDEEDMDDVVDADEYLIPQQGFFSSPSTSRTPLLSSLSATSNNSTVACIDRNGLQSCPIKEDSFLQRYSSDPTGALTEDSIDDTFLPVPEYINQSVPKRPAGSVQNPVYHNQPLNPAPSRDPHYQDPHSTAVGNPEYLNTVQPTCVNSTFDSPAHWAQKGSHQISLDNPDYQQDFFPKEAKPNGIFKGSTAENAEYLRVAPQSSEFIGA

In the case of `O=C(CSc1nc2ccccc2o1)NN=Cc1ccc[nH]1` (mixture of isomers) [Compound 6b, (E/Z)-N′-((1H-pyrrol-2-yl)methylene)-2-(benzo[d]oxazol-2-ylthio)acetohydrazide], the IC50 – broadly, the point on the concentration scale where inhibition reaches its midpoint – turned out to be 279 ± 17 nM.
